Where two headings read alike, the source gives them in different places. Peptide text beside a SMILES is read from it.
How the values were obtained:
[1] = test system: Staphylococcus aureus ATCC 29213; type: cell-based
Description: (§1) Bacterial strains were acquired from the American Type Culture Collection (ATCC, Virginia, USA) and the National Collection of Type Cultures (NCTC, Public Health England, Salisbury, UK). Minimum Inhibitory Concentration (MIC) of peptides versus gram-negative strains-Acinetobacter baumannii NCTC 13420, and Pseudomonas aeruginosa ATCC 27853 and gram-positive strain Staphylococcus aureus ATCC 29213, were determined by broth microdilution as per the guidelines of the Clinical and Laboratory Standards Institute (“Methods for Dilution Antimicrobial Susceptibility Tests for Bacteria That Grow Aerobically”; Approved Standard-Ninth Edition. CLSI document M07-A9, 2012). Peptides were dissolved in sterile distilled water, which was also used as the drug-free vehicle control when determining peptide MICs. Prior to use in the MIC protocol, bacterial strains were grown on Mueller Hinton agar at 37° C. in an ambient atmosphere. […] A fixed inoculum of the test microorganism (5×10^5 cells/mL) is also added to the plate. The MIC is determined as the lowest concentration of compound that inhibits visible bacterial growth following incubation at 37° C. for 16-20 hours. A difference in MIC of two-fold between experimental replicates is considered to be within the normal variability of this protocol.

[2] = test system: Acinetobacter baumannii NCTC 13420; type: cell-based
Description: as §1

[3] = test system: Pseudomonas aeruginosa ATCC 27853; type: cell-based
Description: as §1

[4] = test system: Human erythrocytes; test: Haemolysis assay using human blood; type: cell-based
Description: To determine the extent of haemolytic activity (the ability to lyse red blood cells) in test peptides, a haemolysis assay was conducted using human blood (BioIVT, West Sussex, UK). Human erythrocytes were exposed to a single fixed concentration or a range of concentrations as to determine the % haemolysis (fixed concentration) or the concentration at which 50% haemolysis occurred (HC50), respectively. Prior to the assay, whole human blood was repeatedly washed in phosphate buffered saline (PBS) under cooled conditions to remove the buffy coat, plasma and cell debris. Washed erythrocytes were diluted as to achieve 1×10^8 cells/mL in PBS. Prepared human erythrocyte samples were combined with peptide at a single fixed concentration of 128 μg/mL, or a range of concentrations (two-fold dilution series) from 1000-31.25 μg/mL. Positive and negative controls containing 2% (v/v) Triton X-100 and PBS alone, respectively, were also prepared. Samples were incubated at 37° C. for 1 hour and then centrifuged to collect intact erythrocytes. Haemoglobin release was determined by recording the optical density of the supernatant at 540 nm. Optical density values were transformed to a percentage of the positive control. Results were recorded as a percentage haemolysis at 128 μg/mL, or by plotting the percentage haemolysis versus concentration and extrapolating the HC50 using linear regression analysis (Table 2 above)
The therapeutic index is a widely-accepted parameter to represent the specificity of antimicrobial peptides for prokaryotic versus eukaryotic cells. It is calculated by the ratio of hemolytic activity and antimicrobial activity (MIC) (Table 2 above); thus, larger values of therapeutic index indicate greater specificity for prokaryotic cells. With the peptides used in this study the inventors used the HC50/MIC ratio value to calculate the therapeutic index.

[5] = test system: Acinetobacter baumannii NCTC 13420; type: cell-based; conditions: CA-MHB supplemented with 20% human serum (v/v)
Description: Bacterial strains were acquired from the American Type Culture Collection (ATCC, Virginia, USA) and the National Collection of Type Cultures (NCTC, Public Health England, Salisbury, UK). Minimum Inhibitory Concentration (MIC) of peptides versus gram-negative strains-Acinetobacter baumannii NCTC 13420, and Pseudomonas aeruginosa ATCC 27853 and gram-positive strain Staphylococcus aureus ATCC 29213, were determined by broth microdilution as per the guidelines of the Clinical and Laboratory Standards Institute (“Methods for Dilution Antimicrobial Susceptibility Tests for Bacteria That Grow Aerobically”; Approved Standard-Ninth Edition. CLSI document M07-A9, 2012). Peptides were dissolved in sterile distilled water, which was also used as the drug-free vehicle control when determining peptide MICs. Prior to use in the MIC protocol, bacterial strains were grown on Mueller Hinton agar at 37° C. in an ambient atmosphere. […] A fixed inoculum of the test microorganism (5×10^5 cells/mL) is also added to the plate. The MIC is determined as the lowest concentration of compound that inhibits visible bacterial growth following incubation at 37° C. for 16-20 hours. A difference in MIC of two-fold between experimental replicates is considered to be within the normal variability of this protocol. […]

[6] = Peptide hydrophobicity by RP-HPLC retention; type: physicochemical; conditions: Zorbax SB-300 C8, 0.25% B/min from 10% B, 0.3 ml/min, 30° C.
Text: Retention behavior in RP-HPLC is an excellent method to represent overall peptide hydrophobicity. Retention times of peptides are highly sensitive to the conformational status of the peptides upon interaction with the hydrophobic environment of the column matrix^17,26. The non-polar faces of amphipathic alpha-helical and amphipathic cyclic beta-sheet peptides represent a preferred binding domain for interaction with the hydrophobic matrix of the reversed-phase column^27. In this study, the observed peptide hydrophobicity was determined by RP-HPLC retention time as described below and are relative hydrophobicities because they are dependent on the TFA concentration and organic solvent in the mobile phase, gradient rate, temperature, flow rate and the column used. Analytical Purification by Reversed-phase Chromatography: Analytical RP-HPLC: Column: Zorbax SB-300 C8 (150×2.1 mm ID; 5-μm particle size; 300 Å pore size). Conditions: linear AB gradient (0.25% B/min from 10% B) at a flow-rate of 0.3 ml/min, where Eluent A is 0.2% aq. TFA and Eluent B is 0.18% TFA in acetonitrile; 30° C.

[7] = cation-adjusted Mueller Hinton broth, 37° C., 16-20 hours
[8] = human erythrocytes, 37° C., 1 hour

Compound: CC(=O)N[C@H](CCCCN)C(=O)N[C@H](CC(C)C)C(=O)N[C@H](CCCCN)C(=O)N[C@H](CCCCN)C(=O)N[C@H](CC(C)C)C(=O)N[C@H](CC(C)C)C(=O)N[C@H](CCCCN)C(=O)N[C@H](CCCCN)C(=O)N[C@H](CC(C)C)C(=O)N[C@H](CO)C(=O)N[C@H](CO)C(=O)N[C@H](C)C(=O)N[C@H](CCCCN)C(=O)N[C@H](CO)C(=O)N[C@H](CO)C(=O)N[C@H](CCCCN)C(=O)N[C@H](CC(C)C)C(=O)N[C@H](CO)C(=O)N[C@H](CO)C(=O)N[C@H](CC(C)C)C(=O)N[C@H](CC(C)C)C(=O)N[C@H](CCCCN)C(=O)N[C@H](CCCCN)C(=O)N[C@H](CC(C)C)C(=O)N[C@H](CCCCN)C(=O)N[C@H](CCCCN)C(N)=O [compound 24] (HELM PEPTIDE1{[ac].[dK].[dL].[dK].[dK].[dL].[dL].[dK].[dK].[dL].[dS].[dS].[dA].[dK].[dS].[dS].[dK].[dL].[dS].[dS].[dL].[dL].[dK].[dK].[dL].[dK].[dK].[am]}$$$$V2.0)
- S. Aureus ATCC22213 MIC [1, 7]: 64 µg/mL
- Antimicrobial Activity MIC A. baumannii NCTC13420 [2, 7]: 1 µg/mL
- P. aeruginosa ATCC27853 MIC [3, 7]: 2 µg/mL
- Haemolysis HC50 [4, 8]: >2000 µg/mL
- Antimicrobial Activity MIC A. baumannii NCTC13420 plus 20% SERUM [5]: 2 µg/mL

Compound: CC(=O)N[C@H](CCCCN)C(=O)N[C@H](CC(C)C)C(=O)N[C@H](CCCCN)C(=O)N[C@H](CCCCN)C(=O)N[C@H](CC(C)C)C(=O)N[C@H](CC(C)C)C(=O)N[C@H](CCCCN)C(=O)N[C@H](CCCCN)C(=O)N[C@H](CC(C)C)C(=O)N[C@H](CO)C(=O)N[C@H](CO)C(=O)N[C@H](C)C(=O)N[C@H](CCCCN)C(=O)N[C@H](CO)C(=O)N[C@H](CO)C(=O)N[C@H](CCCCN)C(=O)N[C@H](CC(C)C)C(=O)N[C@H](CO)C(=O)N[C@@H](C(=O)N[C@H](CC(C)C)C(=O)N[C@H](CC(C)C)C(=O)N[C@H](CCCCN)C(=O)N[C@H](CCCCN)C(=O)N[C@H](CC(C)C)C(=O)N[C@H](CCCCN)C(=O)N[C@H](CCCCN)C(N)=O)[C@H](C)O [compound 3] (HELM PEPTIDE1{[ac].[dK].[dL].[dK].[dK].[dL].[dL].[dK].[dK].[dL].[dS].[dS].[dA].[dK].[dS].[dS].[dK].[dL].[dS].[dT].[dL].[dL].[dK].[dK].[dL].[dK].[dK].[am]}$$$$V2.0)
- S. Aureus ATCC22213 MIC ([1]; ATCC 29213): 64 µg/mL
- Antimicrobial Activity MIC A. baumannii NCTC13420 ([2]; NCTC 13420): 2 µg/mL
- P. aeruginosa ATCC27853 MIC ([3]; ATCC 27853): 4 µg/mL
- Haemolysis HC50 ([4]; red cells of human, 1 h): >2000 µg/mL
- tR (relative hydrophobicity by RP-HPLC) [6]: 87.37 min

Compound: CC(=O)N[C@H](C)C(=O)N[C@H](CC(C)C)C(=O)N[C@H](CCCCN)C(=O)N[C@H](CCCCN)C(=O)N[C@H](CC(C)C)C(=O)N[C@H](CC(C)C)C(=O)N[C@H](CCCCN)C(=O)N[C@H](CCCCN)C(=O)N[C@H](CC(C)C)C(=O)N[C@H](CO)C(=O)N[C@H](CO)C(=O)N[C@H](C)C(=O)N[C@H](CCCCN)C(=O)N[C@H](CO)C(=O)N[C@H](CO)C(=O)N[C@H](CCCCN)C(=O)N[C@H](CC(C)C)C(=O)N[C@H](CO)C(=O)N[C@H](CO)C(=O)N[C@H](CC(C)C)C(=O)N[C@H](CC(C)C)C(=O)N[C@H](CCCCN)C(=O)N[C@H](CCCCN)C(=O)N[C@H](CC(C)C)C(=O)N[C@H](CCCCN)C(=O)N[C@H](CCCCN)C(N)=O [compound 25] (HELM PEPTIDE1{[ac].[dA].[dL].[dK].[dK].[dL].[dL].[dK].[dK].[dL].[dS].[dS].[dA].[dK].[dS].[dS].[dK].[dL].[dS].[dS].[dL].[dL].[dK].[dK].[dL].[dK].[dK].[am]}$$$$V2.0)
- S. Aureus ATCC22213 MIC [1, 7]: 128 µg/mL
- Antimicrobial Activity MIC A. baumannii NCTC13420 [2, 7]: 2 µg/mL
- P. aeruginosa ATCC27853 MIC [3, 7]: 4 µg/mL
- Haemolysis HC50 [4, 8]: >2000 µg/mL
- Antimicrobial Activity MIC A. baumannii NCTC13420 plus 20% SERUM [5]: 4 µg/mL
